pIC50: −log10 of the molar value. Like-named read-outs stand apart in the source and are kept apart here.
Legend:
[1] = Solubility of individual peptides
[2] = system: purified HLA-DR molecules; settings: cited from earlier work; for pIC50: high or intermediate affinity, most prevalent HLA-DR molecules, read-out: IC50 for HLA-DR binding; for Number of HLA-DR molecules bound: out of 16 DR molecules tested
[3] = system: patients with recurrent or residual cervical carcinoma; settings: cited from earlier work
[4] = system: PBMC obtained from healthy donors and cancer patients; settings: primary in vitro induction in healthy donors and recall responses in cancer patients; cited from earlier work
[5] = system: HLA-A2.1 transgenic mice; settings: shown by others; cited from earlier work
[6] = system: HLA-A2 supertype alleles; experiment: MHC binding of motif-containing peptides to purified HLA-A2 supertype molecules; parameters: species or system human; settings: all peptides bind prototype HLA-A2.1
Source text: Assays for determining binding are described in detail, e.g., in PCT publications WO 94/20127 and WO 94/03205, and other publications such Sidney et al., Current Protocols in Immunology 18.3.1 (1998); Sidney, et al., J. Immunol. 154:247 (1995); and Sette, et al., Mol. Immunol. 31:813 (1994). It should be noted that IC50 values can change, often dramatically, if the assay conditions are varied, and depending on the particular reagents used (e.g., HLA preparation, etc.). For example, excessive concentrations of HLA molecules will increase the apparent measured IC50 of a given ligand.
A computer-based motif and algorithm search was performed on the primary amino acid sequences of CEA, MAGE-2/3, HER-2/neu, and p53 to predict peptides most likely to bind the MHC molecules of the five alleles of the HLA-A2 supertype family (Tables 4 and 6) (Sette, A. and J. Sidney, Immunogenetics 50:201-212 (1999)). Motif and algorithm-positive peptides were then synthesized and tested for binding to purified HLA-A2.1, the molecule most frequently expressed in humans as well as other MHC molecules of the HLA-A2 supertype family.

[7] = system: colon cancer and NSCLC patients; settings: out of 12 patients who received the DC vaccine; cited from earlier work
[8] = system: HLA-A2.1 positive target cells and wild-type peptide; experiment: in vitro primary CTL induction with human PBMC, read-out on peptide-loaded targets; type: cell-based
Method: In the final step of the epitope screening process, peptides with high cross-reactive MHC binding to the HLA-A2 supertype family receptors were tested for immunogenicity. The assay is an in vitro primary CTL induction system where CD8^+ PBMC from normal subjects are stimulated in vitro, initially with peptide-loaded dendritic cells (DCs) (adherent PBMC expanded in GM-CSF and IL-4), followed by two weekly cycles of restimulation with peptide (Keogh, E., et al., J. Immunol. 167:787-796 (2001); Kawashima, I., et al., Hum. Immunol. 59:1-14 (1998)). Following expansion of naïve precursor cells, CTL activity is determined in the presence of HLA-A2.1 positive target cells and wild-type peptide, using cytotoxicity (^51Cr-release assay) or interferon-gamma (IFN-γ) production (ELISA) as the read-out. Immunogenic peptides that induced CTL were further tested for responses against the naturally processed epitope expressed on tumor cell lines. Epitopes that induced tumor-reactive CTL were considered as vaccine candidates.

[9] = pH 9.6, Solubility, Basic conditions (pH 9.6-13)
[10] = Solubility, Acidic conditions (pH 2-4)
[11] = Solubility, Acidic conditions (pH 2-4), 0.1% TFA, 0.15-0.1875M acetic acid, 25 mM pH 4 sodium acetate, 2-5 mg/ml
[12] = pH 9.6, Solubility, Basic conditions (pH 9.6-13), 25 mM pH 9.6 arginine, 25 mM pH 9.6 sodium bicarbonate, 0.1M NaOH, 2-5 mg/ml

| Compound | solubility (Solubility, DMSO) | solubility [9] | solubility [1, 11] | solubility ([1]; Solubility, DMSO, 2-5 mg/ml) | solubility [1, 12] | Solubility at physiological pH [1] | other results |
| --- | --- | --- | --- | --- | --- | --- | --- |
| CC(C)C[C@H](NC(=O)[C@@H](NC(=O)[C@H](Cc1c[nH]c2ccccc12)NC(=O)[C@H](C)NC(=O)[C@H](C)NC(=O)[C@@H](NC(=O)[C@H](CC1CCCCC1)NC(=O)[C@H](CCCCN)NC(=O)[C@@H](C)N)C(C)C)[C@@H](C)O)C(=O)N[C@@H](CCCCN)C(=O)N[C@@H](C)C(=O)N[C@@H](C)C(=O)N[C@H](C)C(=O)O [Peptide 965.10, aKXVAAWTLKAAa] | – | – | – | – | – | – | solubility [1]: > 2000 µg/mL; solubility ([1]; pH 9.6): < 5000 µg/mL; pIC50 [2]: ≥ 6.00; immunogenicity in humans ([3]; co-emulsified with HPV-derived CTL epitopes): highly immunogenic in humans; safety ([3]; patients with recurrent or residual cervical carcinoma): Safety was, in fact, demonstrated |
| CC(C)C[C@H](NC(=O)[C@H](CC(C)C)NC(=O)[C@@H](N)CCCNC(=N)N)C(=O)N[C@@H](CCC(N)=O)C(=O)N[C@@H](CCC(=O)O)C(=O)N[C@H](C(=O)N[C@@H](CCC(=O)O)C(=O)N[C@@H](CC(C)C)C(=O)N[C@H](C(=O)O)C(C)C)[C@@H](C)O [Peptide 1013.08] | > 2000 µg/mL | > 2000 µg/mL | – | – | – | – | specific CTL responses using PBMC [4]: induced specific CTL responses |
| CC[C@H](C)[C@H](NC(=O)CNC(=O)[C@H](Cc1ccccc1)NC(=O)[C@@H](NC(=O)[C@H](CC(C)C)NC(=O)[C@H](CCC(N)=O)NC(=O)[C@H](CC(C)C)NC(=O)[C@@H](N)Cc1ccc(O)cc1)C(C)C)C(=O)N[C@@H](CCC(=O)O)C(=O)N[C@H](C(=O)O)C(C)C [Peptide 1090.01] | > 2000 µg/mL | > 2000 µg/mL | – | – | – | – | peptide and tumor cell-reactive CTL in vivo [5]: induce peptide and tumor cell-reactive CTL in vivo; solubility [10]: < 5000 µg/mL |
| CC(C)C[C@H](NC(=O)[C@@H](N)CC(C)C)C(=O)N[C@H](C(=O)N[C@@H](Cc1ccccc1)C(=O)N[C@@H](Cc1c[nH]c2ccccc12)C(=O)N[C@@H](CC(N)=O)C(=O)N1CCC[C@H]1C(=O)N1CCC[C@H]1C(=O)N[C@H](C(=O)O)C(C)C)[C@@H](C)O [Peptide 1243.08] | > 2000 µg/mL | > 2000 µg/mL | – | – | – | – | solubility [10]: > 2000 µg/mL |
| CSCC[C@H](NC(=O)[C@@H](N)CO)C(=O)N1CCC[C@H]1C(=O)N1CCC[C@H]1C(=O)N1CCC[C@H]1C(=O)NCC(=O)N[C@H](C(=O)N[C@@H](CCCNC(=N)N)C(=O)N[C@H](C(=O)O)C(C)C)[C@@H](C)O [Peptide 1295.03] | – | – | > 2000 µg/mL | > 2000 µg/mL | > 2000 µg/mL | soluble | peptide and tumor cell-reactive CTL in vivo [5]: induce peptide and tumor cell-reactive CTL in vivo |
| CC(C)C[C@H](NC(=O)[C@H](CCC(N)=O)NC(=O)[C@@H](NC(=O)[C@@H]1CCCN1C(=O)C(C)(C)NC(=O)[C@H](CC(C)C)NC(=O)[C@@H](N)CCCCN)C(C)C)C(=O)N[C@@H](Cc1c[nH]c2ccccc12)C(=O)N[C@H](C(=O)O)C(C)C [Peptide 1323.06, KLBPVQLWV] | – | – | > 2000 µg/mL | > 2000 µg/mL | > 2000 µg/mL | soluble | – |
| CC(C)C[C@H](NC(=O)[C@H](CO)NC(=O)CNC(=O)[C@H](Cc1ccccc1)NC(=O)[C@@H](NC(=O)[C@@H](N)CCCCN)C(C)C)C(=O)N[C@@H](C)C(=O)N[C@@H](Cc1ccccc1)C(=O)N[C@H](C(=O)O)C(C)C [Peptide 1334.10] | > 2000 µg/mL | < 5000 µg/mL | – | – | – | – | solubility [10]: > 2000 µg/mL |
| CC(C)C[C@H](NC(=O)[C@H](CC(N)=O)NC(=O)[C@H](CC(C)C)NC(=O)[C@H](CC(=O)O)NC(=O)[C@H](C)NC(=O)CNC(=O)[C@H](CO)NC(=O)[C@H](CC(C)C)NC(=O)[C@@H](N)Cc1ccc(O)cc1)C(=O)O [Peptide 1350.01] | – | – | > 2000 µg/mL | > 2000 µg/mL | > 2000 µg/mL | soluble | No. A2 Alleles Crossbound [6]: 3; clinical responders [7]: five |
| CC[C@H](C)[C@H](N)C(=O)N[C@@H](CCSC)C(=O)N[C@H](C(=O)NCC(=O)N[C@@H](Cc1c[nH]cn1)C(=O)N[C@@H](CC(C)C)C(=O)N[C@H](C(=O)NCC(=O)N[C@H](C(=O)O)C(C)C)C(C)C)[C@@H](C)CC [Peptide 1352.02] | – | – | > 2000 µg/mL | > 2000 µg/mL | < 5000 µg/mL | – | CTL activity of heteroclitic analog versus wild-type peptide [8]: strong CTL activity which exceeds that of the wild-type peptide |
| CC[C@H](C)[C@H](NC(=O)[C@H](CCC(=O)O)NC(=O)[C@H](C)NC(=O)[C@@H](NC(=O)[C@@H](N)CCCCN)C(C)C)C(=O)N[C@H](C(=O)N[C@@H](Cc1c[nH]cn1)C(=O)N[C@@H](Cc1ccccc1)C(=O)N[C@@H](CC(C)C)C(=O)O)C(C)C [Peptide 1352.03] | – | – | > 2000 µg/mL | > 2000 µg/mL | > 2000 µg/mL | soluble | CTL activity of heteroclitic analog versus wild-type peptide [8]: strong CTL activity which exceeds that of the wild-type peptide |
| TT 830-843: tetanus toxoid (TT) peptide 830-843, a "universal" epitope (QYIKANSKFIGITE; UniProt P04958 830-843, looked up, fragment) [reference compound] | – | – | – | – | – | – | Number of HLA-DR molecules bound [2]: seven |
| aKXVAAWTLKAAa-NH2 | – | – | – | – | – | – | pIC50 [2]: ≥ 6.00; Number of HLA-DR molecules bound [2]: 15 |
| p53.149: wild-type version of analog p53.149M2 used in EP-2101 (STPPPGTRV; UniProt P04637 149-157, looked up, fragment) [reference compound] | – | – | – | – | – | – | specific CTL responses using PBMC [4]: induced specific CTL responses |

Reference: patent US9394350B2, “HLA-A2 tumor associated antigen peptides and compositions” (OSE PHARMA INTERNATIONAL SA, priority 2003, dated 2016)
